From ChEMBL document CHEMBL3112408, “1,2,3-triazole-, arylamino- and thio-substituted 1,4-naphthoquinones: potent antitumor activity, electrochemical aspects, and bioisosteric replacement of C-ring-modified lapachones” (Bioorg Med Chem, 2014)

test system: PC-3; assay: Cytotoxicity against human PC3 cells assessed as cell viability after 72 hrs by MTT assay; type: functional, cell-based; settings: PC-3, 72 h

Compound | IC50 [µM]
O=C1C=C(NCc2cn(CCCCN3C(=O)c4ccccc4C3=O)nn2)C(=O)c2ccccc21 | > 10
O=C1C(Cl)=C(NCc2cn(CN3C(=O)c4ccccc4C3=O)nn2)C(=O)c2ccccc21 | > 11
O=C1C(Cl)=C(NCc2cn(CCN3C(=O)c4ccccc4C3=O)nn2)C(=O)c2ccccc21 | > 10
CC(=O)OC[C@H]1OC(n2cc(CNC3=CC(=O)c4ccccc4C3=O)nn2)[C@H](OC(C)=O)[C@@H](OC(C)=O)[C@@H]1OC(C)=O (single isomer, unassigned) | > 8

test system: SF-295; assay: Cytotoxicity against human SF295 cells assessed as cell viability after 72 hrs by MTT assay; type: functional, cell-based; settings: SF-295, 72 h

Compound | IC50 [µM]
O=C1C=C(NCc2cn(CCCCN3C(=O)c4ccccc4C3=O)nn2)C(=O)c2ccccc21 | > 10
O=C1C(Cl)=C(NCc2cn(CN3C(=O)c4ccccc4C3=O)nn2)C(=O)c2ccccc21 | > 11
O=C1C(Cl)=C(NCc2cn(CCN3C(=O)c4ccccc4C3=O)nn2)C(=O)c2ccccc21 | > 10
CC(=O)OC[C@H]1OC(n2cc(CNC3=CC(=O)c4ccccc4C3=O)nn2)[C@H](OC(C)=O)[C@@H](OC(C)=O)[C@@H]1OC(C)=O (single isomer, unassigned) | > 8

test system: OVCAR-8; assay: Cytotoxicity against human OVCAR8 cells assessed as cell viability after 72 hrs by MTT assay; type: functional, cell-based; settings: OVCAR-8, 72 h

Compound | IC50 [µM]
O=C1C=C(NCc2cn(CCCCN3C(=O)c4ccccc4C3=O)nn2)C(=O)c2ccccc21 | > 10
O=C1C(Cl)=C(NCc2cn(CN3C(=O)c4ccccc4C3=O)nn2)C(=O)c2ccccc21 | > 11
O=C1C(Cl)=C(NCc2cn(CCN3C(=O)c4ccccc4C3=O)nn2)C(=O)c2ccccc21 | > 10
CC(=O)OC[C@H]1OC(n2cc(CNC3=CC(=O)c4ccccc4C3=O)nn2)[C@H](OC(C)=O)[C@@H](OC(C)=O)[C@@H]1OC(C)=O (single isomer, unassigned) | > 8

test system: MCF7; assay: Cytotoxicity against human MCF7 cells assessed as cell viability after 72 hrs by MTT assay; type: functional, cell-based; settings: MCF7, 72 h

Compound | IC50 [µM]
O=C1C=C(NCc2cn(CCCCN3C(=O)c4ccccc4C3=O)nn2)C(=O)c2ccccc21 | > 10
O=C1C(Cl)=C(NCc2cn(CN3C(=O)c4ccccc4C3=O)nn2)C(=O)c2ccccc21 | > 11
O=C1C(Cl)=C(NCc2cn(CCN3C(=O)c4ccccc4C3=O)nn2)C(=O)c2ccccc21 | > 10
CC(=O)OC[C@H]1OC(n2cc(CNC3=CC(=O)c4ccccc4C3=O)nn2)[C@H](OC(C)=O)[C@@H](OC(C)=O)[C@@H]1OC(C)=O (single isomer, unassigned) | > 8

test system: DU-145; assay: Cytotoxicity against human DU145 cells assessed as cell viability after 72 hrs by MTT assay; type: functional, cell-based; settings: DU-145, 72 h

Compound | IC50 [µM]
O=C1C=C(NCc2cn(CCCCN3C(=O)c4ccccc4C3=O)nn2)C(=O)c2ccccc21 | > 10
O=C1C(Cl)=C(NCc2cn(CN3C(=O)c4ccccc4C3=O)nn2)C(=O)c2ccccc21 | > 11
O=C1C(Cl)=C(NCc2cn(CCN3C(=O)c4ccccc4C3=O)nn2)C(=O)c2ccccc21 | > 10
CC(=O)OC[C@H]1OC(n2cc(CNC3=CC(=O)c4ccccc4C3=O)nn2)[C@H](OC(C)=O)[C@@H](OC(C)=O)[C@@H]1OC(C)=O (single isomer, unassigned) | > 8

test system: MDA-MB-435; assay: Cytotoxicity against human MDA-MB-435 cells assessed as cell viability after 72 hrs by MTT assay; type: functional, cell-based; settings: MDA-MB-435, 72 h

Compound | IC50 [µM]
O=C1C=C(NCc2cn(CCCCN3C(=O)c4ccccc4C3=O)nn2)C(=O)c2ccccc21 | > 10
O=C1C(Cl)=C(NCc2cn(CN3C(=O)c4ccccc4C3=O)nn2)C(=O)c2ccccc21 | > 11
O=C1C(Cl)=C(NCc2cn(CCN3C(=O)c4ccccc4C3=O)nn2)C(=O)c2ccccc21 | > 10
CC(=O)OC[C@H]1OC(n2cc(CNC3=CC(=O)c4ccccc4C3=O)nn2)[C@H](OC(C)=O)[C@@H](OC(C)=O)[C@@H]1OC(C)=O (single isomer, unassigned) | > 8

test system: MX1; assay: Cytotoxicity against human MX1 cells assessed as cell viability after 72 hrs by MTT assay; type: functional, cell-based; settings: MX1, 72 h

Compound | IC50 [µM]
O=C1C=C(NCc2cn(CCCCN3C(=O)c4ccccc4C3=O)nn2)C(=O)c2ccccc21 | > 10
O=C1C(Cl)=C(NCc2cn(CN3C(=O)c4ccccc4C3=O)nn2)C(=O)c2ccccc21 | > 11
O=C1C(Cl)=C(NCc2cn(CCN3C(=O)c4ccccc4C3=O)nn2)C(=O)c2ccccc21 | > 10
CC(=O)OC[C@H]1OC(n2cc(CNC3=CC(=O)c4ccccc4C3=O)nn2)[C@H](OC(C)=O)[C@@H](OC(C)=O)[C@@H]1OC(C)=O (single isomer, unassigned) | > 8

test system: not listed separately; assay: Cytotoxicity against human HCT8 cells assessed as cell viability after 72 hrs by MTT assay; type: functional, cell-based; settings: HCT-8, 72 h

Compound | IC50 [µM]
O=C1C=C(NCc2cn(CCCCN3C(=O)c4ccccc4C3=O)nn2)C(=O)c2ccccc21 | > 10
O=C1C(Cl)=C(NCc2cn(CN3C(=O)c4ccccc4C3=O)nn2)C(=O)c2ccccc21 | > 11
O=C1C(Cl)=C(NCc2cn(CCN3C(=O)c4ccccc4C3=O)nn2)C(=O)c2ccccc21 | > 10
CC(=O)OC[C@H]1OC(n2cc(CNC3=CC(=O)c4ccccc4C3=O)nn2)[C@H](OC(C)=O)[C@@H](OC(C)=O)[C@@H]1OC(C)=O (single isomer, unassigned) | > 8

test system: HL-60; assay: Cytotoxicity against human HL60 cells assessed as cell viability after 72 hrs by MTT assay; type: functional, cell-based; settings: HL-60, 72 h

Compound | IC50 [µM]
O=C1C=C(NCc2cn(CCCCN3C(=O)c4ccccc4C3=O)nn2)C(=O)c2ccccc21 | > 10
O=C1C(Cl)=C(NCc2cn(CN3C(=O)c4ccccc4C3=O)nn2)C(=O)c2ccccc21 | > 11
O=C1C(Cl)=C(NCc2cn(CCN3C(=O)c4ccccc4C3=O)nn2)C(=O)c2ccccc21 | > 10
CC(=O)OC[C@H]1OC(n2cc(CNC3=CC(=O)c4ccccc4C3=O)nn2)[C@H](OC(C)=O)[C@@H](OC(C)=O)[C@@H]1OC(C)=O (single isomer, unassigned) | > 8

test system: V79; assay: Cytotoxicity against chinese hamster V79 cells assessed as cell viability after 72 hrs by MTT assay; type: cell-based; settings: Cricetulus griseus, V79, 72 h

Compound | IC50 [µM]
O=C1C=C(NCc2cn(CCCCN3C(=O)c4ccccc4C3=O)nn2)C(=O)c2ccccc21 | > 10
O=C1C(Cl)=C(NCc2cn(CN3C(=O)c4ccccc4C3=O)nn2)C(=O)c2ccccc21 | > 11
O=C1C(Cl)=C(NCc2cn(CCN3C(=O)c4ccccc4C3=O)nn2)C(=O)c2ccccc21 | > 10
CC(=O)OC[C@H]1OC(n2cc(CNC3=CC(=O)c4ccccc4C3=O)nn2)[C@H](OC(C)=O)[C@@H](OC(C)=O)[C@@H]1OC(C)=O (single isomer, unassigned) | > 8

test system: not listed separately; assay: Cytotoxicity against human Hs578T cells assessed as cell viability after 72 hrs by MTT assay; type: functional, cell-based; settings: Hs-578T

Compound | IC50 [µM]
O=C1C=C(NCc2cn(CCCCN3C(=O)c4ccccc4C3=O)nn2)C(=O)c2ccccc21 | > 10
O=C1C(Cl)=C(NCc2cn(CN3C(=O)c4ccccc4C3=O)nn2)C(=O)c2ccccc21 | > 11
O=C1C(Cl)=C(NCc2cn(CCN3C(=O)c4ccccc4C3=O)nn2)C(=O)c2ccccc21 | > 10
CC(=O)OC[C@H]1OC(n2cc(CNC3=CC(=O)c4ccccc4C3=O)nn2)[C@H](OC(C)=O)[C@@H](OC(C)=O)[C@@H]1OC(C)=O (single isomer, unassigned) | > 8

test system: L929; assay: Cytotoxicity against mouse L929 cells assessed as cell viability after 72 hrs by MTT assay; type: ADME, cell-based; settings: L929, 72 h

Compound | IC50 [µM]
O=C1C=C(NCc2cn(CCCCN3C(=O)c4ccccc4C3=O)nn2)C(=O)c2ccccc21 | > 10
O=C1C(Cl)=C(NCc2cn(CN3C(=O)c4ccccc4C3=O)nn2)C(=O)c2ccccc21 | > 11
O=C1C(Cl)=C(NCc2cn(CCN3C(=O)c4ccccc4C3=O)nn2)C(=O)c2ccccc21 | > 10
CC(=O)OC[C@H]1OC(n2cc(CNC3=CC(=O)c4ccccc4C3=O)nn2)[C@H](OC(C)=O)[C@@H](OC(C)=O)[C@@H]1OC(C)=O (single isomer, unassigned) | > 8

test system: PBMC; assay: Cytotoxicity against human PBMC assessed as cell viability after 72 hrs by MTT assay; type: cell-based; settings: not given

Compound | IC50 [µM]
O=C1C=C(NCc2cn(CCCCN3C(=O)c4ccccc4C3=O)nn2)C(=O)c2ccccc21 | > 10
O=C1C(Cl)=C(NCc2cn(CN3C(=O)c4ccccc4C3=O)nn2)C(=O)c2ccccc21 | > 11
O=C1C(Cl)=C(NCc2cn(CCN3C(=O)c4ccccc4C3=O)nn2)C(=O)c2ccccc21 | > 10
CC(=O)OC[C@H]1OC(n2cc(CNC3=CC(=O)c4ccccc4C3=O)nn2)[C@H](OC(C)=O)[C@@H](OC(C)=O)[C@@H]1OC(C)=O (single isomer, unassigned) | > 8

test system: HCT-116; assay: Cytotoxicity against human HCT116 cells assessed as cell viability after 72 hrs by MTT assay; type: functional, cell-based; settings: HCT-116, 72 h

Compound | IC50 [µM]
O=C1C=C(NCc2cn(CCCCN3C(=O)c4ccccc4C3=O)nn2)C(=O)c2ccccc21 | > 10
O=C1C(Cl)=C(NCc2cn(CN3C(=O)c4ccccc4C3=O)nn2)C(=O)c2ccccc21 | > 11
O=C1C(Cl)=C(NCc2cn(CCN3C(=O)c4ccccc4C3=O)nn2)C(=O)c2ccccc21 | > 10
CC(=O)OC[C@H]1OC(n2cc(CNC3=CC(=O)c4ccccc4C3=O)nn2)[C@H](OC(C)=O)[C@@H](OC(C)=O)[C@@H]1OC(C)=O (single isomer, unassigned) | > 8
